# Laboratory results reported in patent US20180201592A1, “2-AMINO-1,3,4-THIADIAZINE AND 2-AMINO-1,3,4-OXADIAZINE BASED ANTIFUNGAL AGENTS” (F2G Limited, priority 2015, published 2018).
# Like-named read-outs stand apart in the source and are kept apart here.
# Assays:
# C. albicans = assay: Minimum inhibitory concentration, RPMI medium; format: cell-based; settings: banded MIC grade; for MIC: Candida albicans, RPMI media
# Outline: (§1)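 Thawed 5 mg/mL DMSO stocks are vortexed, diluted into sterile water and serially halved in water. The MIC test is then run in RPMI 1640 at 35° C for 24-48 hrs. Wells are read at OD 485 nm.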
# C. tropicalis = assay: Minimum inhibitory concentration, RPMI medium; format: cell-based; settings: banded MIC grade; for MIC: Candida tropicalis, RPMI media
# Outline: as §1
# C. parapsilosis = assay: Minimum inhibitory concentration, RPMI medium; format: cell-based; settings: banded MIC grade; for MIC: Lodderomyces parapsilosis, RPMI media
# Outline: as §1
# A. fumigatus 210 = assay: Minimum inhibitory concentration, YAG medium; format: cell-based, Aspergillus fumigatus; settings: banded MIC grade; for MIC: Aspergillus fumigatus, 210, YAG media
# Outline: (§2)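 Broth microdilution in YAG medium; inoculum 1-2×10^4 cfu/mL; compound 50-0.05 mg/L in doubling steps, from DMSO stock. 24 h, 35° C. Read OD 485 nm; MIC = lowest conc. inhibiting growth >70% vs no-drug control, in mg/L.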
# Aspergillus fumigatus = assay: Minimum inhibitory concentration, YAG medium; format: cell-based; settings: banded MIC grade; for MIC: Aspergillus fumigatus, YAG media
# Outline: as §2
# A. terreus 49 = assay: Minimum inhibitory concentration, YAG medium; format: cell-based, Aspergillus terreus; settings: banded MIC grade; for MIC: Aspergillus terreus, 49, YAG media
# Outline: (§3)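 MIC values (mg/L) were derived from well optical density at 485 nm. Plates with Aspergillus spores and doubling aqueous dilutions of compound (5 mg/mL DMSO stock) had been incubated at 35° C for 24 hrs.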
# Aspergillus niger = assay: Minimum inhibitory concentration, YAG medium; format: cell-based; settings: banded MIC grade; for MIC: Aspergillus niger, YAG media
# Outline: as §3
# Aspergillus flavus = assay: Minimum inhibitory concentration, YAG medium; format: cell-based; settings: banded MIC grade; for MIC: Aspergillus flavus, YAG media
# Outline: as §3
# Aspergillus terreus = assay: Minimum inhibitory concentration, YAG medium; format: cell-based; settings: banded MIC grade; for MIC: Aspergillus terreus, YAG media
# Outline: as §3
# [1] = read-out: MIC grade C. ALBICANS
# [2] = read-out: MIC grade, C. ALBICANS, RPMI media
# [3] = read-out: MIC grade C. PARAPSILOSIS
# [4] = read-out: MIC grade, C. PARAPSILOSIS, RPMI media
SMILES,"MIC grade, C. ALBICANS, RPMI media (C. albicans)","MIC grade, C. TROPICALIS, RPMI media (C. tropicalis)","MIC grade, C. PARAPSILOSIS, RPMI media (C. parapsilosis)","MIC grade, A. FUMIGATUS 210, YAG media (A. fumigatus 210)","MIC grade, A. FUMIGATUS, YAG media (Aspergillus fumigatus)","MIC grade, A. TERREUS 49, YAG media (A. terreus 49)","MIC grade, A. NIGER, YAG media (Aspergillus niger)","MIC grade, A. FLAVUS, YAG media (Aspergillus flavus)","MIC grade, A. TERREUS, YAG media (Aspergillus terreus)",MIC (C. albicans; [1]) [µg/mL],MIC (C. albicans; [2]) [µg/mL],MIC (C. tropicalis) [µg/mL],MIC (C. parapsilosis; [3]) [µg/mL],MIC (C. parapsilosis; [4]) [µg/mL],MIC (A. fumigatus 210) [µg/mL],MIC (Aspergillus fumigatus) [µg/mL],MIC (A. terreus 49) [µg/mL],MIC (Aspergillus niger) [µg/mL],MIC (Aspergillus flavus) [µg/mL],MIC (Aspergillus terreus) [µg/mL]
NC1=NN=C(CCCCCOc2ccccc2)CS1,4 (4: <1 mg/L),4 (4: <1 mg/L),4 (4: <1 mg/L),4 (4: <0.2 mg/L),4 (4: <0.2 mg/L),4 (4: <0.2 mg/L),4 (4: <0.2 mg/L),4 (4: <0.2 mg/L),4 (4: <0.2 mg/L),–,–,–,–,–,–,–,–,–,–,–
NC1=NN=C(CCOCCCc2ccccc2)CS1,4 (4: <1 mg/L),3 (3: 1-5 mg/L),4 (4: <1 mg/L),4 (4: <0.2 mg/L),4 (4: <0.2 mg/L),4 (4: <0.2 mg/L),4 (4: <0.2 mg/L),4 (4: <0.2 mg/L),4 (4: <0.2 mg/L),–,–,–,–,–,–,–,–,–,–,–
CCOC(=O)c1cccc(C2=NN=C(N)SC2)c1,1 (1: ≥20 mg/L),1 (1: ≥20 mg/L),1 (1: ≥20 mg/L),1 (1: ≥5 mg/L),1 (1: ≥5 mg/L),1 (1: ≥5 mg/L),1 (1: ≥5 mg/L),1 (1: ≥5 mg/L),1 (1: ≥5 mg/L),–,–,–,–,–,–,–,–,–,–,–
"CCCCOc1ccc(C2=CSC(N)=NN2C)cc1 [5-(4-butoxyphenyl)-4-methyl-1,3,4-thiadiazin-2-amine]",–,–,–,–,–,–,–,–,–,1 to 5,≥ 20,1 to 5,< 1,1 to 5,< 0.2,< 0.2,0.2 to 1,< 0.2,< 0.2,0.2 to 1
COCCCCCCC1=NN=C(N)SC1,4 (4: <1 mg/L),3 (3: 1-5 mg/L),4 (4: <1 mg/L),4 (4: <0.2 mg/L),4 (4: <0.2 mg/L),4 (4: <0.2 mg/L),4 (4: <0.2 mg/L),4 (4: <0.2 mg/L),4 (4: <0.2 mg/L),–,–,–,–,–,–,–,–,–,–,–
NC1=NN=C(c2ccc(Cl)c(Cl)c2)CS1,1 (1: ≥20 mg/L),1 (1: ≥20 mg/L),1 (1: ≥20 mg/L),1 (1: ≥5 mg/L),1 (1: ≥5 mg/L),1 (1: ≥5 mg/L),2 (2: 1-5 mg/L),1 (1: ≥5 mg/L),1 (1: ≥5 mg/L),–,–,–,–,–,–,–,–,–,–,–
"Cc1ccc(C2=CSC(N)=NN2C)cc1 [4-methyl-5-(p-tolyl)-1,3,4-thiadiazin-2-amine]",–,–,–,–,–,–,–,–,–,< 1,5 to 20,≥ 20,≥ 20,1 to 5,< 0.2,< 0.2,< 0.2,0.2 to 1,0.2 to 1,< 0.2
"CN1N=C(N)SC=C1c1cc2ccccc2o1 [5-(benzofuran-2-yl)-4-methyl-1,3,4-thiadiazin-2-amine]",–,–,–,–,–,–,–,–,–,5 to 20,≥ 20,≥ 20,5 to 20,≥ 20,0.2 to 1,1 to 5,0.2 to 1,1 to 5,1 to 5,0.2 to 1
NC1=NN=C(CCCCc2cc3ccccc3o2)CS1,3 (3: 1-5 mg/L),3 (3: 1-5 mg/L),4 (4: <1 mg/L),3 (3: 0.2-1 mg/L),3 (3: 0.2-1 mg/L),3 (3: 0.2-1 mg/L),3 (3: 0.2-1 mg/L),4 (4: <0.2 mg/L),4 (4: <0.2 mg/L),–,–,–,–,–,–,–,–,–,–,–
"CN1N=C(N)SC=C1c1ccc(Cl)cc1 [5-(4-chlorophenyl)-4-methyl-1,3,4-thiadiazin-2-amine]",–,–,–,–,–,–,–,–,–,1 to 5,1 to 5,5 to 20,< 1,< 1,< 0.2,< 0.2,< 0.2,< 0.2,< 0.2,< 0.2
"CCOC(=O)c1ccc(C2=CSC(N)=NN2C)cc1 [ethyl 4-(2-amino-4-methyl-1,3,4-thiadiazin-5-yl)benzoate]",–,–,–,–,–,–,–,–,–,< 1,1 to 5,1 to 5,< 1,< 1,< 0.2,< 0.2,0.2 to 1,0.2 to 1,< 0.2,< 0.2
COC(=O)CC1=NN=C(N)SC1,1 (1: ≥20 mg/L),1 (1: ≥20 mg/L),2 (2: 5-20 mg/L),2 (2: 1-5 mg/L),2 (2: 1-5 mg/L),2 (2: 1-5 mg/L),2 (2: 1-5 mg/L),2 (2: 1-5 mg/L),2 (2: 1-5 mg/L),–,–,–,–,–,–,–,–,–,–,–
NC1=NN=C(CCCCCOc2ccc(F)cc2)CS1,4 (4: <1 mg/L),4 (4: <1 mg/L),4 (4: <1 mg/L),4 (4: <0.2 mg/L),4 (4: <0.2 mg/L),4 (4: <0.2 mg/L),4 (4: <0.2 mg/L),4 (4: <0.2 mg/L),4 (4: <0.2 mg/L),–,–,–,–,–,–,–,–,–,–,–
COc1ccc(C2=NN=C(N)SC2)cc1,1 (1: ≥20 mg/L),1 (1: ≥20 mg/L),1 (1: ≥20 mg/L),2 (2: 1-5 mg/L),2 (2: 1-5 mg/L),3 (3: 0.2-1 mg/L),2 (2: 1-5 mg/L),2 (2: 1-5 mg/L),3 (3: 0.2-1 mg/L),–,–,–,–,–,–,–,–,–,–,–
Cc1cc(C)cc(C2=NN=C(N)SC2)c1,1 (1: ≥20 mg/L),1 (1: ≥20 mg/L),1 (1: ≥20 mg/L),2 (2: 1-5 mg/L),1 (1: ≥5 mg/L),1 (1: ≥5 mg/L),2 (2: 1-5 mg/L),1 (1: ≥5 mg/L),1 (1: ≥5 mg/L),–,–,–,–,–,–,–,–,–,–,–
COCCCC1=NN=C(N)SC1,3 (3: 1-5 mg/L),2 (2: 5-20 mg/L),3 (3: 1-5 mg/L),4 (4: <0.2 mg/L),4 (4: <0.2 mg/L),4 (4: <0.2 mg/L),4 (4: <0.2 mg/L),4 (4: <0.2 mg/L),3 (3: 0.2-1 mg/L),–,–,–,–,–,–,–,–,–,–,–
CCc1cccc(OCCCCCC2=NN=C(N)SC2)c1,4 (4: <1 mg/L),4 (4: <1 mg/L),4 (4: <1 mg/L),4 (4: <0.2 mg/L),4 (4: <0.2 mg/L),4 (4: <0.2 mg/L),4 (4: <0.2 mg/L),4 (4: <0.2 mg/L),4 (4: <0.2 mg/L),–,–,–,–,–,–,–,–,–,–,–
COCCCCCCCC1=NN=C(N)SC1,4 (4: <1 mg/L),4 (4: <1 mg/L),4 (4: <1 mg/L),4 (4: <0.2 mg/L),4 (4: <0.2 mg/L),4 (4: <0.2 mg/L),4 (4: <0.2 mg/L),4 (4: <0.2 mg/L),4 (4: <0.2 mg/L),–,–,–,–,–,–,–,–,–,–,–
"CN1N=C(N)SC=C1c1ccc(C#N)cc1 [4-(2-amino-4-methyl-1,3,4-thiadiazin-5-yl)benzonitrile]",–,–,–,–,–,–,–,–,–,< 1,1 to 5,5 to 20,1 to 5,1 to 5,< 0.2,0.2 to 1,< 0.2,< 0.2,< 0.2,< 0.2
